Assay results: patent publication US8697739B2, “Bicyclic acetyl-CoA carboxylase inhibitors and uses thereof” (Novartis AG, priority 2010, dated 2014)
pIC50: −log10 of the molar value.

The compounds below were run against T1, human acetyl-CoA carboxylase 2 (ACC2) (Homo sapiens, UniProt O00763) (assay: Acetyl-CoA carboxylase enzyme assay (malonyl-CoA formation by LC/MS/MS)). Settings: recombinant human ACC2 (aa 144-2458); read-out: IC50 ACC2.
T1 construct: The cDNA encoding amino acids 144 to 2458 of human acetyl-CoA carboxylase 2; made in house; host or cells: Sf9 insect cells (baculovirus, pFastBac1)
T1 sequence (O00763 144-2458): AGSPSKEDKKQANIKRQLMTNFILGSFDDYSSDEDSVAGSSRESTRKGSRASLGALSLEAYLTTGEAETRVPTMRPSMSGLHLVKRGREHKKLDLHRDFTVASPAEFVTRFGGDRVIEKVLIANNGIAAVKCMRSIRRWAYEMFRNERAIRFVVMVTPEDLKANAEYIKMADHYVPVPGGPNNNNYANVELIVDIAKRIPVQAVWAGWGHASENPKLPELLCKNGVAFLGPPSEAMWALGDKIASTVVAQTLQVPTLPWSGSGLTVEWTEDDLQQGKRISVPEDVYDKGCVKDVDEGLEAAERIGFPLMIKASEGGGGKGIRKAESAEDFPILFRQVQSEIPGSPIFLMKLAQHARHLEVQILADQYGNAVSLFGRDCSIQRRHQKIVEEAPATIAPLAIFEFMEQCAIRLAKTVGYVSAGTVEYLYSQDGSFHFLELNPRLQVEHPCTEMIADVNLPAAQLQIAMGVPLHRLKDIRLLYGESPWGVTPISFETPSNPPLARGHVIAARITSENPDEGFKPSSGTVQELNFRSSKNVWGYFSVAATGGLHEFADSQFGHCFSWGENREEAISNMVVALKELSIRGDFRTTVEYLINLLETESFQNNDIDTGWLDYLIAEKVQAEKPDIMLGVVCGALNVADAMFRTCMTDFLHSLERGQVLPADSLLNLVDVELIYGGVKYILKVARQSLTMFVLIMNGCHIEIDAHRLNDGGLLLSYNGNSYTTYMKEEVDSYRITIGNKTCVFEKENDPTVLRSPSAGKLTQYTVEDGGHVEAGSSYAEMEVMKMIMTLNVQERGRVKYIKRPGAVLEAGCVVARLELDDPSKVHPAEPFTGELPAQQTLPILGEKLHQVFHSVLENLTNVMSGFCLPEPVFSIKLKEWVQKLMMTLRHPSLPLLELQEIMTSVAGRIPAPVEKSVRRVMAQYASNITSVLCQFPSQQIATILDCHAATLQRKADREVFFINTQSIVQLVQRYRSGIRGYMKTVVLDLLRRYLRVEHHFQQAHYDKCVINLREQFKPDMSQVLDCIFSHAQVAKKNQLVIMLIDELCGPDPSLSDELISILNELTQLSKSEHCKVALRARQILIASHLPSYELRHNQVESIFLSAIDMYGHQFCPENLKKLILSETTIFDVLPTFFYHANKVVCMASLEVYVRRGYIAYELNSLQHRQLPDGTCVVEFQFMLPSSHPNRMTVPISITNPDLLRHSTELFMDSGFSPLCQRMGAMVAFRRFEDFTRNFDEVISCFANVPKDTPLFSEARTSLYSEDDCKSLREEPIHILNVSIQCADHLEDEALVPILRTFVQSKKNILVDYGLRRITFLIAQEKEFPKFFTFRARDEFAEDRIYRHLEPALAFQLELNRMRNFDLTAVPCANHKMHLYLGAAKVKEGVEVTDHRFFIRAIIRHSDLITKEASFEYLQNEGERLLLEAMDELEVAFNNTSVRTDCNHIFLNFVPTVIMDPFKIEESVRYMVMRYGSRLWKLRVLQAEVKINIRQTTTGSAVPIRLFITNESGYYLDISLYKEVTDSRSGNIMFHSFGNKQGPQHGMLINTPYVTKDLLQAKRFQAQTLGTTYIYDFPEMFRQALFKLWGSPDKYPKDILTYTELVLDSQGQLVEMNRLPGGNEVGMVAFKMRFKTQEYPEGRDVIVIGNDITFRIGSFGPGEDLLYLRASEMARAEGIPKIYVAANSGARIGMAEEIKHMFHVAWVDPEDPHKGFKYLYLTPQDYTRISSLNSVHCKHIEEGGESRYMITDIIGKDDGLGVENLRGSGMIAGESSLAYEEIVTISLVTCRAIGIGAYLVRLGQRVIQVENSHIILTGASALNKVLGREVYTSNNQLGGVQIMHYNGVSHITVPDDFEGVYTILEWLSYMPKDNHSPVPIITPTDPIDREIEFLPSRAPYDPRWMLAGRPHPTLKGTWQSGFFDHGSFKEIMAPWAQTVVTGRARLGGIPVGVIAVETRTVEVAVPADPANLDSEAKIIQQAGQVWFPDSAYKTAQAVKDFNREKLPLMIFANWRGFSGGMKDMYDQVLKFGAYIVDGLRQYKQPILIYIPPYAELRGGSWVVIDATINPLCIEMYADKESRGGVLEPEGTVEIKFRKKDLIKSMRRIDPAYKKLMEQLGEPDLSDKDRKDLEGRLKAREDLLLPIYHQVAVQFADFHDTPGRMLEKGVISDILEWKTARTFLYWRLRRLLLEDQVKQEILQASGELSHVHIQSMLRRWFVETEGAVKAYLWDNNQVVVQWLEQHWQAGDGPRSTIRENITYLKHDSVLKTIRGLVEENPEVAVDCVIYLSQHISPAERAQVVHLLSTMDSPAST
Format: biochemical
Method in brief: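 Malonyl-CoA formation was read by LC/MS/MS MRM against a [13C3]-malonyl-CoA internal standard, after acetic acid quench. The enzyme was baculovirus/Sf9-expressed human ACC2 residues 144–2458, given 15 minutes room-temperature compound preincubation in HEPES pH 7.5 buffer with MgCl2, citrate and DTT. Substrate solution held 50 μM acetyl-CoA, 120 μM ATP and 2 mM KHCO3.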
Work on `C[C@@H](NC(=O)[C@H]1CC[C@H](NS(=O)(=O)c2ccc3[nH]c(-c4ccncc4)nc3c2)CC1)c1ccccc1` [Example 280, (1r,4R)-N-((R)-1-phenylethyl)-4-(2-(pyridin-4-yl)-1H-benzo[d]imidazole-5-sulfonamido)cyclohexanecarboxamide] yielded a pIC50 of 7.92. With `C[C@@H](NC(=O)[C@H]1CC[C@H](NS(=O)(=O)c2ccc3[nH]c(-c4cccnc4)nc3c2)CC1)c1ccccc1` [Example 281, (1r,4R)-N-((R)-1-phenylethyl)-4-(2-(pyridin-3-yl)-1H-benzo[d]imidazole-5-sulfonamido)cyclohexanecarboxamide] the pIC50 was 7.96. For `C[C@@H](NC(=O)[C@H]1CC[C@H](NS(=O)(=O)c2ccc3cc(-c4ccccc4)[nH]c3c2)CC1)c1ccccc1` [Example 282, (1r,4R)-4-(2-phenyl-1H-indole-6-sulfonamido)-N-((R)-1-phenylethyl)cyclohexanecarboxamide], the pIC50 was 7.74. `CC(NC(=O)[C@H]1CC[C@H](NS(=O)(=O)c2ccc3[nH]c(-c4cccnc4)cc3c2)CC1)c1ccncc1` (stereo partly drawn) [Example 283, (1r,4r)-4-(2-(pyridin-3-yl)-1H-indole-5-sulfonamido)-N-(1-(pyridin-4-yl)ethyl)cyclohexanecarboxamide] showed a pIC50 of 6.59. For `C[C@@H](NC(=O)[C@H]1CC[C@H](NS(=O)(=O)c2ccc3[nH]c(-c4cccnc4)cc3c2)CC1)c1ccccc1` [Example 284, (1r,4R)-N-((R)-1-phenylethyl)-4-(2-(pyridin-3-yl)-1H-indole-5-sulfonamido)cyclohexanecarboxamide], the pIC50 was 7.85. `C[C@@H](NC(=O)[C@H]1CC[C@H](NS(=O)(=O)c2ccc3[nH]c(-c4cccnc4)cc3c2)CC1)c1ccc(F)cc1` [Example 285, (1r,4R)-N-((R)-1-(4-fluorophenyl)ethyl)-4-(2-(pyridin-3-yl)-1H-indole-5-sulfonamido)cyclohexanecarboxamide] showed a pIC50 of 7.92. `CCC(C)NC(=O)[C@H]1CC[C@H](NS(=O)(=O)c2ccc3[nH]c(-c4cccnc4)cc3c2)CC1` (stereo partly drawn) [Example 286, (1r,4r)-N-sec-butyl-4-(2-(pyridin-3-yl)-1H-indole-5-sulfonamido)cyclohexanecarboxamide] showed a pIC50 of 6.47. `CCC(C)NC(=O)[C@H]1CC[C@H](NS(=O)(=O)c2ccc3[nH]c(-c4cccnc4)cc3c2)CC1` (stereo partly drawn) [Example 287, (1r,4R)-N-sec-butyl-4-(2-(pyridin-3-yl)-1H-indole-5-sulfonamido)cyclohexanecarboxamide] was tested, and the pIC50 was 6.71. `CC(C)N(C)C(=O)[C@H]1CC[C@H](NS(=O)(=O)c2ccc3[nH]c(-c4cccnc4)cc3c2)CC1` [Example 288, (1r,4r)-N-isopropyl-N-methyl-4-(2-(pyridin-3-yl)-1H-indole-5-sulfonamido)cyclohexanecarboxamide] showed a pIC50 of 6.40. `CC(C)[C@@H](C)NC(=O)[C@H]1CC[C@H](NS(=O)(=O)c2ccc3[nH]c(-c4cccnc4)cc3c2)CC1` [Example 289, (1r,4R)-N-((R)-3-methylbutan-2-yl)-4-(2-(pyridin-3-yl)-1H-indole-5-sulfonamido)cyclohexanecarboxamide] gave a pIC50 of 6.63. Work on `C[C@@H](NC(=O)[C@H]1CC[C@H](NS(=O)(=O)c2ccc3cc(C4CC4)[nH]c3c2)CC1)c1ccc(F)cc1` [Example 290, (1r,4R)-4-(2-cyclopropyl-1H-indole-6-sulfonamido)-N-((R)-1-(4-fluorophenyl)ethyl)cyclohexanecarboxamide] yielded a pIC50 of 7.55. Compound `C[C@@H](NC(=O)[C@H]1CC[C@H](NS(=O)(=O)c2ccc3cc(-c4ccccc4Cl)[nH]c3c2)CC1)c1ccc(F)cc1` [Example 291, (1r,4R)-4-(2-(2-chlorophenyl)-1H-indole-6-sulfonamido)-N-((R)-1-(4-fluorophenyl)ethyl)cyclohexanecarboxamide] has a pIC50 of 7.77. In the case of `Cc1ccccc1-c1cc2ccc(S(=O)(=O)N[C@H]3CC[C@H](C(=O)N[C@H](C)c4ccc(F)cc4)CC3)cc2[nH]1` [Example 292, (1r,4R)-N-((R)-1-(4-fluorophenyl)ethyl)-4-(2-o-tolyl-1H-indole-6-sulfonamido)cyclohexanecarboxamide], the pIC50 was 7.92. `COc1ccccc1-c1cc2ccc(S(=O)(=O)N[C@H]3CC[C@H](C(=O)N[C@H](C)c4ccc(F)cc4)CC3)cc2[nH]1` [Example 293] was tested, and the pIC50 was 7.42. For `C[C@@H](NC(=O)[C@H]1CC[C@H](NS(=O)(=O)c2ccc3cc(C4CC4)[nH]c3c2)CC1)c1ccccn1` [Example 294, (1r,4R)-4-(2-cyclopropyl-1H-indole-6-sulfonamido)-N-((R)-1-(pyridin-2-yl)ethyl)cyclohexanecarboxamide], the pIC50 was 6.55. `C[C@@H](NC(=O)[C@H]1CC[C@H](NS(=O)(=O)c2ccc3cc(-c4c(Cl)cccc4Cl)[nH]c3c2)CC1)c1ccc(F)cc1` [Example 295, (1r,4R)-4-(2-(2,6-dichlorophenyl)-1H-indole-6-sulfonamido)-N-((R)-1-(4-fluorophenyl)ethyl)cyclohexanecarboxamide] gave a pIC50 of 6.32. Work on `C[C@@H](NC(=O)[C@H]1CC[C@H](NS(=O)(=O)c2ccc3cc(-c4ccc(CO)cc4)[nH]c3c2)CC1)c1ccc(F)cc1` [Example 296, (1r,4R)-N-((R)-1-(4-fluorophenyl)ethyl)-4-(2-(4-(hydroxymethyl)phenyl)-1H-indole-6-sulfonamido)cyclohexanecarboxamide] yielded a pIC50 greater than 8.00. `COc1ccc(-c2cc3ccc(S(=O)(=O)N[C@H]4CC[C@H](C(=O)N[C@H](C)c5ccc(F)cc5)CC4)cc3[nH]2)c(C)c1` [Example 297, (1r,4R)-N-((R)-1-(4-fluorophenyl)ethyl)-4-(2-(4-methoxy-2-methylphenyl)-1H-indole-6-sulfonamido)cyclohexanecarboxamide] was tested, and the pIC50 was 7.77. Work on `Cc1ccc(C)c(-c2cc3ccc(S(=O)(=O)N[C@H]4CC[C@H](C(=O)N[C@H](C)c5ccc(F)cc5)CC4)cc3[nH]2)c1` [Example 298, (1r,4R)-4-(2-(2,5-dimethylphenyl)-1H-indole-6-sulfonamido)-N-((R)-1-(4-fluorophenyl)ethyl)cyclohexanecarboxamide] yielded a pIC50 of 7.62. `C[C@@H](NC(=O)[C@H]1CC[C@H](NS(=O)(=O)c2ccc3cc(-c4ccccc4CO)[nH]c3c2)CC1)c1ccc(F)cc1` [Example 299, (1r,4R)-N-((R)-1-(4-fluorophenyl)ethyl)-4-(2-(2-(hydroxymethyl)phenyl)-1H-indole-6-sulfonamido)cyclohexanecarboxamide] showed a pIC50 of 7.96. In the case of `COC(=O)c1ccc(-c2cc3ccc(S(=O)(=O)N[C@H]4CC[C@H](C(=O)N[C@H](C)c5ccc(F)cc5)CC4)cc3[nH]2)c(C)c1` [Example 300], the pIC50 was 8.00. For `Cc1cc(C(=O)O)ccc1-c1cc2ccc(S(=O)(=O)N[C@H]3CC[C@H](C(=O)N[C@H](C)c4ccc(F)cc4)CC3)cc2[nH]1` [Example 301, 4-(6-(N-((1R,4r)-4-((R)-1-(4-fluorophenyl)ethylcarbamoyl)cyclohexyl)sulfamoyl)-1H-indol-2-yl)-3-methylbenzoic acid], the pIC50 was greater than 8.00. With `Cc1cc(CO)ccc1-c1cc2ccc(S(=O)(=O)N[C@H]3CC[C@H](C(=O)N[C@H](C)c4ccc(F)cc4)CC3)cc2[nH]1` [Example 302, (1r,4R)-N-((R)-1-(4-fluorophenyl)ethyl)-4-(2-(4-(hydroxymethyl)-2-methylphenyl)-1H-indole-6-sulfonamido)cyclohexanecarboxamide] the pIC50 was greater than 8.00. Work on `CC(C)Cc1cc2ccc(S(=O)(=O)N[C@H]3CC[C@H](C(=O)N[C@H](C)c4ccc(F)cc4)CC3)cc2[nH]1` [Example 303, (1r,4R)-N-((R)-1-(4-fluorophenyl)ethyl)-4-(2-isobutyl-1H-indole-6-sulfonamido)cyclohexanecarboxamide] yielded a pIC50 of 6.24. Work on `C[C@@H](NC(=O)[C@H]1CC[C@H](NS(=O)(=O)c2ccc3cc(C4CCCC4)[nH]c3c2)CC1)c1ccc(F)cc1` [Example 304, (1r,4R)-4-(2-cyclopentyl-1H-indole-6-sulfonamido)-N-((R)-1-(4-fluorophenyl)ethyl)cyclohexanecarboxamide] yielded a pIC50 of 6.74. With `C[C@@H](NC(=O)[C@H]1CC[C@H](NS(=O)(=O)c2ccc3cc(CCO)[nH]c3c2)CC1)c1ccc(F)cc1` [Example 305, (1r,4R)-N-((R)-1-(4-fluorophenyl)ethyl)-4-(2-(2-hydroxyethyl)-1H-indole-6-sulfonamido)cyclohexanecarboxamide] the pIC50 was 7.22. `C[C@@H](NC(=O)[C@H]1CC[C@H](NS(=O)(=O)c2ccc3cc(CCOS(C)(=O)=O)[nH]c3c2)CC1)c1ccc(F)cc1` [Example 306, 2-(6-(N-((1R,4r)-4-((R)-1-(4-fluorophenyl)ethylcarbamoyl)cyclohexyl)sulfamoyl)-1H-indol-2-yl)ethyl methanesulfonate] gave a pIC50 of 7.30. In the case of `C[C@@H](NC(=O)[C@H]1CC[C@H](NS(=O)(=O)c2ccc3cc(-c4ccccc4C#N)[nH]c3c2)CC1)c1ccc(F)cc1` [Example 307, (1r,4R)-4-(2-(2-cyanophenyl)-1H-indole-6-sulfonamido)-N-((R)-1-(4-fluorophenyl)ethyl)cyclohexanecarboxamide], the pIC50 was 8.00. With `Cc1cc(CO)ccc1-c1cc2ccc(S(=O)(=O)N[C@H]3CC[C@H](C(=O)N4CCOCC4)CC3)cc2[nH]1` [Example 308, 2-(4-(hydroxymethyl)-2-methylphenyl)-N-((1r,4r)-4-(morpholine-4-carbonyl)cyclohexyl)-1H-indole-6-sulfonamide] the pIC50 was 7.22. In the case of `Cc1cc(CO)ccc1-c1cc2ccc(S(=O)(=O)N[C@H]3CC[C@H](C(=O)N4CCN(C(=O)OC(C)(C)C)C[C@@H]4c4ccccc4)CC3)cc2[nH]1` [Example 309, (S)-tert-butyl 4-((1r,4S)-4-(2-(4-(hydroxymethyl)-2-methylphenyl)-1H-indole-6-sulfonamido)cyclohexanecarbonyl)-3-phenylpiperazine-1-carboxylate], the pIC50 was 7.70.
